{"source": "patent US20230047961A1", "about": "“THE CHOLESTEROL-SYNTESIS INTERMEDIATES FOR TREATMENT DEMYELINATING DISORDERS” (priority 2019, published 2023)", "key": {"[1]": {"test_system": "MOG35-55 induced EAE animals", "experiment": "Clinical score of MOG35-55 induced EAE animals", "assay_type": "in vivo, mouse", "method": "For MOG-EAE, mice purchased from Charles River were immunized subcutaneously with […] myelin oligodendrocyte glycoprotein peptide 35-55 (MOG35-55) in complete Freund's adjuvant (M. tuberculosis at 3.75 mg ml^−1) and i.p. injected twice with 500 ng pertussis toxin. Animals were examined daily and scored for clinical signs of the disease. […] The clinical score was: 0 normal; 0.5 loss of tail tip tone; 1 loss of tail tone; 1.5 ataxia, mild walking deficits (slip off the grid); 2 mild hind limb weakness, severe gait ataxia, twist of the tail causes rotation of the whole body; 2.5 moderate hind limb weakness, cannot grip the grid with hind paw, but able to stay on a upright tilted grid; 3 mild paraparesis, falls down from a upright tiled grid; 3.5 paraparesis of hind limbs (legs strongly affected, but move clearly); 4 paralysis of hind limbs, weakness in forelimbs; 4.5 forelimbs paralyzed; 5 moribund/dead. […] DMHCA (Avanti) was dissolved in corn oil (Sigma) and given therapeutically in chow at a dosage of 8 mg kg^−1. IFNβ1b (Bayer) was administrated by daily intraperitoneal (i.p.) injections 30.000 U per animal."}, "[2]": {"test_system": "inflammatory cells in brain and spinal cord tissue", "experiment": "Flow cytometry of inflammatory cells in brain and spinal cord of Plp1-tg mice", "assay_type": "in vivo, mouse", "conditions": "0.5% [v/w] squalene diet between 2 and 12 weeks of age (FIG. 14b)", "method": "(§1) Single-cell suspensions from spinal cords were obtained via mechanical dissociation on a cell strainer. Immune cells were separated over a two-phase Percoll-density gradient (70%/30%). Blood was collected by cardiac puncture in EDTA (80 mM) and single-cell suspension was obtained by centrifugation over lymphocyte separation medium (LSM 1077, PAA). Staining of abTCR/CD4 T cells, abTCR/CD8 T cells and CD45/CD11 b cells (macrophages/microglia) was performed using the following antibodies in a 1:200 dilution:Anti-CD3e (clone 145-2C11), BioLegend; anti-CD4 (clone GK 1.5), BD; anti-CD8 (clone 53-6.7), BD; […]; anti-CD11b (clone M1/70), BioLegend; anti-CD45.2 (clone 104), BioLegend. The addition of Calibrite APC beads (BD) allowed for cell quantification. Flow cytometry was performed using a FACSCalibur operated by Cell Quest software (Becton Dickinson).\n(§2) Plp1 transgenic Plp1-tg, line #72 mice (Readhead et al., 1994, Stumpf, Berghoff et al., 2019) harbor three copies of the murine Plp1 gene. Dietary treatment was applied between 2 and 12 weeks of age.\n(§3) Dietary supplementation with squalene (0.5% [v/w])."}, "myelinating co-cultures": {"test_system": "myelinating co-cultures", "experiment": "Myelinating co-culture in vitro (MBP area normalized to SM131 axons)", "assay_type": "cell-based", "conditions": "100 μM squalene", "method": "Myelinating co-cultures were established as described (Thomson, C. E. et al. 2008) with minor modifications. Briefly, E13 embryonic spinal cords were digested in 0.125% Trypsin solution in HBSS (without Ca^+2 and Mg^+2) at 37° C. for 20 min. After stopping the digestion with 1 ml plating media (DMEM, 25% horse serum, 25% HBSS, […] DNAse) the tissue was homogenized by gentle trituration and centrifuged for 5 min. 150,000 cells were plated per poly-L-lysine coated coverslip; 3 coverslips per 35 mm Petri dish. After cell attachment in plating media, differentiation media was added (low glucose DMEM, […] insulin, 10 ng ml^−1 biotin, 50 nM hydrocortisone, 0.5% N1-mix). N1 mix was 1 mg ml^−1 apo-transferrin, 20 mM putrescine, […] progesterone, and 6 mM sodium selenite. 50% media change was performed every 24-48 h with differentiation media. Squalene (100 μM) was added at day 3 to cultures. After 12 days, insulin was removed from differentiation media. […] Axonal (SM131) area and the area with myelin sheaths (MBP) of seven randomly chosen visual fields of myelinating co-cultures (×20 magnification) was measured by automated threshold with Fiji Software (SM131 Otsu, MBP Triangle). Specimens were analyzed on an Axiophot observer.Z1 (Zeiss) equipped with an AxioCam MRm and the ZEN 2012 blue edition software and evaluated with Image J software."}, "[3]": {"test_system": "peripheral inflammatory cells", "experiment": "Flow cytometry of peripheral inflammatory cells per ml blood in EAE", "assay_type": "in vivo, mouse", "conditions": "peak of EAE disease (day 16), therapeutic squalene vs normal chow (FIG. 3a-c)", "method": "as §1"}, "[4]": {"test_system": "CD11b+ myeloid cells (microglia/macrophages)", "experiment": "RT-qPCR expression profile in MACS isolated CD11b+ myeloid cells of EAE mice", "assay_type": "in vivo, mouse", "description": "Microglia/Macrophages were isolated according to the adult brain dissociation protocol (Miltenyi biotec). Spinal cord was isolated on ice followed by removal of meninges. Antibody labeling steps were done according to the respective antibody Microbead kit protocol (Miltenyi biotec), oligodendrocytes (04, 130-096-670) and microglia (CD11 b, 130-093-636).\n(§4) For tissue expression analyses, spinal cord tissue was dissected from ˜Th10-˜L5. RNA was isolated using QIAshredder and RNeasy protocols (Qiagen). Concentration and quality of RNA was evaluated using a NanoDrop spectrophotometer and RNA Nano (Agilent). cDNA was synthesized with Superscript III (Invitrogen) and quantitative PCRs were done in triplicates with the GoTaq qPCR Master Mix (Promega) on a 7500 Fast Real-Time PCR System (Applied Biosystems). Expression values were normalized to the mean of three—five housekeeping genes, HPRT (Hypoxanthin-Phosphoribosyl-Transferase 1) and Rplp0 (60S acidic ribosomal protein P), Rps13 (Ribosomal Protein S13), Gapdh (Glyceraldehyde-3-Phosphate Dehydrogenase), 18S (18S ribosomal RNA) and quantification was done by applying the ΔΔCt method, normalized to age matched untreated controls (set to 1). All primers were intron-spanning."}, "[5]": {"test_system": "spinal cord tissue gene expression", "experiment": "RT-qPCR expression profile in spinal cord lysates of EAE mice", "assay_type": "in vivo, mouse", "conditions": "remission phase", "method": "as §4"}, "Plp1-tg mice": {"test_system": "Plp1-tg mice", "experiment": "Elevated beam test in Plp1-tg mice (Pelizaeus-Merzbacher disease model)", "assay_type": "in vivo, mouse", "conditions": "0.5% [v/w] squalene diet between 2 and 12 weeks of age (FIG. 14a)", "description": "as §2, §3\nTo assess bilateral sensorimotor coordination that involves connecting white matter structures, elevated beam test (in-house made, MPI of experimental medicine) was applied. Mice were trained to run toward a hiding box on a beam (width 1.5 cm) one week before testing. In one testing session number of slips in a defined 55 cm distance over three repeats was counted. Mean number of slips after three testing sessions (8 weeks, 10 weeks and 12 weeks) was quantified."}, "[6]": {"test_system": "inflammatory cells in spinal cord tissue", "experiment": "Flow cytometry of inflammatory cells per gram spinal cord in EAE", "assay_type": "in vivo, mouse", "conditions": "peak of EAE disease (day 16), therapeutic squalene vs normal chow (FIG. 2)"}, "[7]": {"test_system": "lysolecithin induced lesions", "experiment": "Remyelination in lysolecithin induced spinal cord lesions", "assay_type": "in vivo, mouse", "conditions": "14 days post lesion", "method": "Focal spinal cord demyelinating lesions were induced under MMF anesthesia (1.0 mg kg^−1 midazolam, 0.05 mg kg^−1 medetomidine and 0.02 mg kg^−1 fentanyl) by stereotactic injection of 1 μl lysolecithin (1%, from egg yolk, alpha-lysophosphatidyl-choline, Sigma) into the left and right ventro-lateral funiculus at Th10 of 8-week old animals. The injection was performed at a rate of ˜1 μl min^−1. This procedure created fusiform demyelinating lesions, 5-6 mm in length. At the day of injection, mice were randomly assigned to normal or 0.5% [v/w] squalene supplemented chow for 14 days, after which the animals were killed, and the spinal cord processed for histology. For serum isolation, blood was collected by cardiac puncture, and serum was prepared after 4 h clotting by centrifugation.\nMice were perfused with 4% paraformaldehyde (PFA). Spinal cord tissue was postfixed overnight, embedded in paraffin and cut into […] sections (HMP 110, MICROM). For immunohistological analyses, sections were deparaffinized followed by antigen-retrieval in sodium citrate buffer (0.01 M, pH 6.0). For immunofluorescence, sections were blocked with serum free protein block (Dako). Primary antibodies were diluted in 2% bovine serum albumin (BSA)/PBS and incubated for 48 h followed by fluorophor coupled secondary antibodies. Lesion area (DAPI clustered nuclei), oligodendrocyte cell number (CAll, carbonic anhydrase 2) and myelin positive area (MBP, myelin basic protein) were evaluated."}, "[8]": {"conditions": "acute phase (15 days post immunization), prophylactic squalene vs chow (FIG. 5a)"}, "[9]": {"conditions": "prophylactic squalene vs chow fed controls (FIG. 4a)"}, "[10]": {"conditions": "prophylactic squalene vs chow fed controls (FIG. 4b)"}}, "note": "Entries after “also recorded” stand apart in the source; their conditions may differ."}
{"smiles": "CC(C)=CCCC(C)=CCC/C(C)=C/CC/C=C(\\C)CC/C=C(\\C)CCC=C(C)C", "note": "(stereo in doubt) [squalene, (6E,10E,14E,18E)-2,6,10,15,19,23-hexamethyltetracosa-2,6,10,14,18,22-hexaene]", "values": [{"measurement": "Mean clinical score (EAE disease severity)", "setting": "[1]; prophylactic regimen, 0.5% [v/w] squalene chow from 14 days before immunization (FIG. 1a, 1c)", "value": "ameliorate disease severity; also recorded: more effective prophylactic effect than the treatment of multiple sclerosis with interferon beta-1b"}, {"measurement": "Mean clinical score (EAE disease severity)", "setting": "[1]; therapeutic regimen, 0.5% [v/w] squalene chow from day of disease onset (FIG. 1b)", "value": "ameliorate disease severity"}, {"measurement": "Mean clinical score (EAE disease severity)", "setting": "[1]; therapeutic regimen, squalene 0.03% [v/w] (FIG. 10a, 10b)", "value": "Disease amelioration was already present"}, {"measurement": "Mean clinical score (EAE disease severity), dose comparison", "setting": "[1]; therapeutic regimen, squalene 0.03% [v/w], 0.5% [v/w] and 5% [v/w] (FIG. 10a)", "value": "dose depend"}, {"measurement": "Number of inflammatory cells per gram brain", "setting": "[2]", "value": "reduced number of inflammatory cells"}, {"measurement": "Number of inflammatory cells per gram spinal cord", "setting": "[2]", "value": "reduced number of inflammatory cells"}, {"measurement": "MBP positive area normalized to SM131 positive axons", "setting": "myelinating co-cultures; 21 DIV (FIG. 7)", "value": "increased MBP positive area"}, {"measurement": "MBP positive area normalized to SM131 positive axons", "setting": "myelinating co-cultures; 30 DIV (FIG. 7)", "value": "increased MBP positive area"}, {"measurement": "Number of peripheral immune cells (abTCR/CD4+, abTCR/CD8+, CD45+/CD11b+) per ml blood", "setting": "[3]", "value": "did not observe differences"}, {"measurement": "Expression levels of pro-inflammatory mediator genes such as TNF and IL1β", "setting": "[4]; [8]", "value": "reduced expression levels"}, {"measurement": "Expression of anti-inflammatory molecules such as TGFβ1", "setting": "[4]; [8]", "value": "increased expression"}, {"measurement": "Expression of cholesterol export genes Abca1 and Apoe", "setting": "[4]; acute phase, prophylactic squalene vs untreated control (FIG. 5b)", "value": "upregulated"}, {"measurement": "Expression of cholesterol export genes (Abca1, Abcg1, Abcg4, Apoe, Clu)", "setting": "[5]; [9]", "value": "significantly increased expression"}, {"measurement": "Expression of cholesterol synthesis genes (Hmgc1, Hmgcr, Fdft1, Dhcr24, Cyp51a1, Mvk)", "setting": "[5]; [9]", "value": "significantly increased expression"}, {"measurement": "Expression of cholesterol uptake genes (Ldlr, Vldlr, Apobr, Lrp1, Lrp2)", "setting": "[5]; [9]", "value": "significantly increased expression"}, {"measurement": "Expression of genes related to myelination and oligodendrocyte differentiation (Plp1, Car2, Olig2, Pdgfra, Cspg4)", "setting": "[5]; [9]", "value": "significantly increased expression"}, {"measurement": "Expression of pro-inflammatory mediator genes", "setting": "[5]; [10]", "value": "reduced expression"}, {"measurement": "Gene expression of the anti-inflammatory molecules 1110 and Tgfb1", "setting": "[5]; [10]", "value": "significantly increased"}, {"measurement": "Clinical disease severity by elevated beam testing (number of slips)", "setting": "Plp1-tg mice", "value": "high potential to ameliorate clinical disease severity"}, {"measurement": "Number of CD11b+/CD45+ myeloid cells per gram spinal cord", "setting": "[6]", "value": "reduced numbers"}, {"measurement": "Number of inflammatory CD4+ T cells per gram spinal cord", "setting": "[6]", "value": "reduced numbers"}, {"measurement": "Number of inflammatory CD8+ T cells per gram spinal cord", "setting": "[6]", "value": "reduced numbers"}, {"measurement": "Number of CAII positive mature oligodendrocytes within lesion area", "setting": "[7]; 0.5% [v/w] squalene chow from day of lesion induction vs control (FIG. 6b)", "value": "strongly increased"}, {"measurement": "Degree of MBP positive myelinated axons within lesion area", "setting": "[7]; 0.5% [v/w] squalene chow from day of lesion induction vs control (FIG. 6f)", "value": "strongly increased"}, {"measurement": "Size of the lesion area (DAPI positive increased nuclear density)", "setting": "[7]; 0.5% [v/w] squalene chow vs control (FIG. 6c)", "value": "comparable"}]}
